The values below are quoted from earlier work in US11246852B2, “Fast-acting plant-based medicinal compounds and nutritional supplements” (RECEPTOR HOLDINGS, INC., priority 2016, dated 2022).

As to `CCCCCc1cc(O)c2c(c1)OC(C)(C)[C@@H]1CCC(C)=C[C@@H]21` [THC, delta-9-tetrahydrocannabinol], the “appetite stimulant effect may continue for” value (after administration) is ≥ 24 h. In addition, the duration of action (after oral administration, psychoactive effects) was 4 to 6 h.
